Values after ≈ are worked out from the molar mass of the structure shown.
Experiments:
[1] = test system: oriental house flies; assay: Activity on knock-down against oriental house flies (Experimental Example 5); type: in vivo; conditions: 0.2% oil preparation, 0.7 ml, 1.5 Kg/cm^2, (70 cm)^3 glass box
Procedure: (§1) 0.2% oil preparation was prepared from each of the compounds (1), (2), (8), (14), (22), (25), (26), (27), (51), (62), (73), (82), (86), (88), to (90), (92), (94), (96), (111), (119), (121), (165), (175), (180), (184), (185), (195), (200), (201), and (208) and allethrin as a control using deodorized kerosene.
20 oriental house flies per group were released in a (70 cm)^3 volume glass box and sprayed with each of the oil preparations prepared in Experimental Example 4 from the compounds of Table 3 below and allethrin in an amount of 0.7 ml under a pressure of 1.5 Kg/cm^2.

[2] = test system: adult mosquitoes (Culex pipiens); assay: Knock-down of adult mosquitoes by 0.2% oil preparation (Experimental Example 4); type: in vivo; conditions: 0.2% oil preparation, 0.7 ml, 1.5 Kg/cm^2, (70 Cm)^3 glass box, read-out: mosquitoes knocked down
Procedure: as §1

[3] = Oral toxicity to mice; conditions: mouse, in vivo
[4] = test system: oriental house flies; assay: Potentiation of insecticidal activity by addition of piperonyl butoxide, topical application (Experimental Example 6); type: in vivo; conditions: piperonyl butoxide 5 times active ingredient; acetone solution on thoracic dorsal plate
Procedure: To each of the compounds (22), (51), (62), (63), (82), (86), (125), (150), (160), (176), (177), (178), (184), (185), (191), (195), (200), (201), (204), (208), (210), (212) and (226) was added piperonyl butoxide in an amount of 5 times that of the active ingredient, respectively to prepare an acetone solution having a given concentration. Each of the thus prepared acetone solutions was applied onto a thoracic dosal plate of oriental house flies using a microshringe to observe a synergestic effect on insecticidal activity by piperonyl butoxide.

[5] = test system: Larvae of Mosquito (Culex pipiens); assay: Insecticidal activity on larvae of mosquito (Experimental Example 2); type: in vivo; conditions: 24 h, read-out: LC50 (50% lethal concentration)
Procedure: (§2) An emulsifiable concentrate was prepared by blending each of the compounds (1) to (300) of the present invention, xylol and Sorpol SM-200 (trade name; manufactured by Toho Chemical Co., Ltd.) in a proportion of 25%, 50% and 25% (by weight), respectively. 20 to 25 day-old rice plants after seeding were grown in pots and sprayed with each 300-fold dilute solution of the emulsifiable concentrates thus prepared and a 300-fold dilute solution of carbaryl 30% wettable powder diluted with water as a control commercial agent in an amount of 10 ml/pot in each case and then the pots were covered by a cylindrical metal net. 15 small brown planthoppers (Delphacodes striatella Fallen) per group were released in each of the pots treated with carbaryl wettable powder, and compound (1) to (21) and (102) to (110), while 15 green rice leafhopper (Nephotettix bipuntatus cincticeps Uhler) per group were released in each of the pots treated with the carbaryl wettable powder and compounds (22) to (101) and (111) to (300).
Of the emulsifiable concentrates prepared in Experimental Example 1, each of those prepared from the compounds of Table 1 below was diluted with water to each of test concentrations and a 200 ml portion thereof was added to a 300 ml volume beaker. 30 larvae of mosquito per group were released in each of the beaker and allowed to stand for 1 day. Survival was observed and a LC50 (50% lethal concentration) was determined by calculating a percent killing in each case. As a control, lindane emulsifiable concentrate was used.

[6] = test system: small brown planthoppers (Delphacodes striatella Fallen); assay: Killing effect on small brown planthoppers on sprayed rice plants (Experimental Example 1); type: in vivo; conditions: 300-fold dilute solution, 10 ml/pot; one day after treatment; 1440 min
Procedure: as §2

[7] = test system: green rice leafhopper (Nephotettix bipuntatus cincticeps Uhler); assay: Killing effect on green rice leafhopper on sprayed rice plants (Experimental Example 1); type: in vivo; conditions: 300-fold dilute solution, 10 ml/pot; one day after treatment; 1440 min
Procedure: as §2

| SMILES | KT50 (50% knock-down time) [1] | pest or weed control at 0.2 % [2] | LD50 [3] | Potentiation magnification of insecticidal activity by the addition of piperonyl butoxide [4] | LC50 [5] | killing effect [6] | killing effect [7] |
| --- | --- | --- | --- | --- | --- | --- | --- |
| C=C(C)C(C(=O)OCc1cccc(Oc2ccccc2)c1)c1ccc(OC)cc1 (stereo not drawn) [compound 82, 3'-Phenoxybenzyl-α-isopropenyl-4-methoxyphenylacetate] | 132 s | > 80% | > 1000 mg/kg | 6.7 | – | – | – |
| C#CCc1ccc(C(C#C)OC(=O)C(c2ccc(C)cc2)C(C)C)o1 (centres unmarked) [compound 200] | 114 s | > 80% | – | 7.5 | – | – | – |
| C#CCc1cc(C)c(COC(=O)C(c2ccc(Cl)cc2)C(C)C)c(C)c1 (centres unmarked) [compound 129] | – | – | > 1000 mg/kg | – | – | – | – |
| CCC(C(=O)OCc1coc(Cc2ccccc2)c1)c1ccc(F)cc1 (centres unmarked) [compound 185] | 137 s | > 80% | – | 5.0 | – | – | – |
| CCC(C(=O)OCc1coc(Cc2ccccc2)c1)c1ccc(Cl)cc1 (centres unmarked) [compound 184] | 142 s | > 80% | 940 mg/kg | 5.6 | 7.8 ng/mL (≈ 21.1 nM) | – | – |
| COc1ccc(C(C(=O)OCc2coc(Cc3ccccc3)c2)C(C)C)cc1 (stereo not drawn) [compound 22, 5'-Benzyl-3'-furylmethyl-α-isopropyl-4-methoxyphenylacetate] | 136 s | > 80% | 900 mg/kg | 5.0 | – | – | – |
| Cc1ccc(C(C(=O)OCc2ccc(Cc3ccco3)s2)C(C)C)cc1 (centres unmarked) [compound 145] | – | – | > 1000 mg/kg | – | 3.9 ng/mL (≈ 10.6 nM) | – | – |
| CCC(C(=O)OCc1coc(Cc2ccccc2)c1)c1ccccc1 (stereo not drawn) [compound 1, 5'-Benzyl-3'-furylmethyl-α-ethyl-phenylacetate] | 167 s | > 80% | > 1000 mg/kg | – | 1.5 ng/mL (≈ 4.49 nM) | – | – |
| CC(C)C(C(=O)OCN1C(=O)c2ccccc2C1=O)c1ccc(Cl)cc1 (centres unmarked) [compound 130] | – | – | > 1000 mg/kg | – | – | – | – |
| COc1ccc(C(C(=O)OCc2cccc(Oc3ccccc3)c2)C(C)C)cc1 (stereo not drawn) [compound 62, 3'-Phenoxybenzyl-α-isopropyl-4-methoxyphenylacetate] | 154 s | > 80% | > 1000 mg/kg | 5.3 | – | – | – |
| CCC(C(=O)OCc1cccc(Oc2ccccc2)c1)c1ccccc1 (stereo not drawn) [compound 2, 3'-Phenoxybenzyl-α-ethylphenylacetate] | – | > 80% | > 1000 mg/kg | – | 3.4 ng/mL (≈ 9.81 nM) | – | – |
| C=C(C)C(C(=O)OCc1cccc(Oc2ccccc2)c1)c1ccc(F)cc1 (stereo not drawn) [compound 121, 3'-Phenoxybenzyl-α-isopropenyl-4-fluorophenylacetate] | 130 s | > 80% | – | – | 3.7 ng/mL (≈ 9.83 nM) | – | – |
| CCC(C(=O)OCc1cccc(Oc2ccccc2)c1)c1ccc(C)cc1 (centres unmarked) [compound 176] | – | – | > 1000 mg/kg | 5.2 | – | – | – |
| CC(C)C(C(=O)OCc1coc(Cc2ccccc2)c1)c1ccc(F)cc1 (centres unmarked) [compound 208] | 150 s | > 80% | – | 5.2 | – | – | – |
| Cc1ccc(C(C(=O)OCc2coc(Oc3ccccc3)c2)C(C)C)cc1 (centres unmarked) [compound 195] | 140 s | > 80% | – | 5.7 | – | – | – |
| COc1ccc(C(C(=O)OCc2cc3c(o2)CCCC3)C(C)C)cc1 (stereo not drawn) [compound 88, 4',5'-Tetramethylenefurfuryl-α-isopropyl-4-methoxyphenylacetate] | 147 s | > 80% | – | – | – | – | – |

| SMILES | KT50 (50% knock-down time) [1] | pest or weed control at 0.2 % [2] | LD50 [3] | Potentiation magnification of insecticidal activity by the addition of piperonyl butoxide [4] | LC50 [5] | killing effect [6] | killing effect [7] |
| --- | --- | --- | --- | --- | --- | --- | --- |
| C#CCc1ccc(C(C#C)OC(=O)C(c2ccc(OC)cc2)C(C)C)o1 (stereo not drawn) [compound 51, 5'-Propargyl-2'-(α'-ethynyl)-furfuryl-α-isopropyl-4-methoxyphenylacetate] | 104 s | > 80% | – | 7.2 | – | – | – |
| CC(C)C(C(=O)OCc1cccc(Oc2ccccc2)c1)c1ccc(Cl)cc1 (centres unmarked) [compound 206] | – | – | > 1000 mg/kg | 5.1 | 3.2 ng/mL (≈ 8.1 nM) | – | – |
| COc1ccc(C(C(=O)OCc2ccc(Oc3ccccc3)o2)C(C)C)cc1 (stereo not drawn) [compound 63, 5'-Phenoxyfurfuryl-α-isopropyl-4-methoxyphenylacetate] | 140 s | – | > 1000 mg/kg | 4.8 | – | – | – |
| C#CCc1cc(C(C#C)OC(=O)C(CC)c2ccccc2)co1 (stereo not drawn) [compound 8, 5'-Propargyl-α '-ethynyl-3'-furylmethyl-α-ethyl-phenylacetate] | 128 s | > 80% | 750 mg/kg | – | – | – | – |
| CC(C)C(C(=O)OC(C#N)c1cccc(Oc2ccccc2)c1)c1ccc(F)cc1 (centres unmarked) [compound 165] | 145 s | > 80% | – | – | 1.2 ng/mL (≈ 2.97 nM) | – | – |
| CCC(C(=O)OCc1cccc(Oc2ccccc2)c1)c1ccc(OC)cc1 (stereo not drawn) [compound 80, 3'-Phenoxybenzyl-α-ethyl-4-methoxyphenylacetate] | – | – | > 2000 mg/kg | – | – | – | – |
| C#CCc1ccc(C(C#C)OC(=O)C(c2ccc(Cl)cc2)C(C)C)o1 (centres unmarked) [compound 201] | 105 s | > 80% | – | 7.0 | – | – | – |
| CCC(C(=O)OCc1coc(Cc2ccco2)c1)c1ccc(Br)cc1 (centres unmarked) [compound 175] | 152 s | > 80% | – | – | – | – | – |
| C=C(C)C(C(=O)OCc1cccc(Oc2ccccc2)c1)c1ccc(C)cc1 (stereo not drawn) [compound 125, 3'-Phenoxybenzyl-α -isopropenyl-4-methylphenylacetate] | – | – | 1000 mg/kg | 6.0 | 3.2 ng/mL (≈ 8.59 nM) | – | – |
| C=C(C)C(C(=O)OCc1cccc(Oc2ccccc2)c1)c1ccc(Br)cc1 (stereo not drawn) [compound 111, 3'-Phenoxybenzyl-α-isopropenyl-4-bromophenylacetate] | 138 s | > 80% | – | – | 2.5 ng/mL (≈ 5.72 nM) | – | – |
| Cc1ccc(C(C(=O)OCc2cc3c(s2)CCCC3)C(C)C)cc1 (centres unmarked) [compound 150] | – | – | > 1000 mg/kg | 4.2 | – | – | – |
| C=C(C)C(C(=O)OCc1cccc(Oc2ccccc2)c1)c1ccc(Cl)cc1 (stereo not drawn) [compound 119, 3'-Phenoxybenzyl-α-isopropenyl-4-chlorophenylacetate] | 132 s | > 80% | > 1000 mg/kg | 5.5 | 4.4 ng/mL (≈ 11.2 nM) | – | – |
| CCC(C(=O)OCc1coc(Oc2ccccc2)c1)c1ccc(Cl)cc1 (centres unmarked) [compound 180] | 157 s | > 80% | – | – | 7.2 ng/mL (≈ 19.4 nM) | – | – |
| CNC(=O)Oc1cccc2ccccc12 [carbaryl] | – | – | – | – | – | more than 90% | more than 90% |
| Cc1ccc(C(C(=O)OCc2cccc(Oc3ccccc3)c2)C(C)C)cc1 (stereo not drawn) [compound 108, 3'-Phenoxybenzyl-α-isopropyl-4-methylphenylacetate] | – | – | > 1000 mg/kg | – | – | – | – |
| C=C(C)C(C(=O)OCc1cccc(Oc2ccccc2)c1)c1ccc(OC)cc1C (stereo not drawn) [compound 96, 3'-Phenoxybenzyl-α-isopropenyl-2-methyl-4-methoxyphenylacetate] | 92 s | > 80% | – | – | – | – | – |
